Marks after values point to notes of the source that are not given here.
Key:
129SVEV mice = test: Stress-Induced Hyperthermia (SIH) test; type: in vivo; conditions: mouse, 60 min before test
Procedure: Stress-Induced Hyperthermia (SIH) protocol: The stress-induced hyperthermia (SIH) test is based on the principle that animal's have a natural hyperthermic response to stress. The test involves taking two measures of rectal temperature in the same animal within a 10 minute interval. The two sequential rectal temperature measurements reveal the animal's basal temperature (T1) and 10 minutes later, an enhanced body temperature (T2) due to the stress of the first rectal temperature. The difference T2-T1 (delta T) is the SIH response. When anxiolytic drugs are administered prior to recording temperature, they reduce the stress response.
Adult male 129SVEV mice (6 weeks old) from Taconic Laboratories (Germantown, N.Y.) were used in these studies. Upon receipt, mice were assigned unique identification numbers (tail marked) and were group housed in OptiMICE ventilated racks. All animals remained group housed during the remainder of the study unless indicated otherwise. All mice were acclimated to the colony room for at least two weeks prior to testing and were subsequently tested at 8 weeks of age. During the period of acclimation, mice were examined on a regular basis, handled, and weighed to assure adequate healtH, D and suitability. Mice were maintained on a 12/12 light/dark cycle with the light on at 7:00 a.m. The room temperature was maintained between 20 and 23° C. with a relative humidity maintained between 30% and 70%. Chow and water were provided ad libitum for the duration of the study. Animals were not disturbed between test days.
On the day prior to testing, the mice were brought to the experimental room one hour before scheduled lights out and singly housed overnight with food and water ad libitum. On the morning of the experiment, mice were orally dosed via gavage with vehicle, CDP (10 mg/kg) or compounds of the present invention (3, 10 or 30 mg/kg) and placed back in the cages. One hour after oral gavage, each animal was removed from the holding cage and held in a supine position and rectal temperature was measured. The rectal probe was attached to a PhysiTemp digital thermometer (Fisher Scientific) which provides temperature readings at 0.1° C. accuracy. The probe remained inside the animal for approximately 5 seconds or until body temperature reached stability. This temperature was recorded as the baseline rectal temperature (T1). The animal was immediately placed back to the holding cage and after a 10-min interval the 2nd rectal temperature (T2) was taken using the same procedure as in measuring T1. Before each insertion, the rectal probe was cleaned with an alcohol pad and lubricated with sterile K-Y jelly.
Chlordiazepoxide (10 mg/kg) was used as the positive control. Compounds of the present invention, vehicle (45% hydroxypropyl beta-cyclodextrin) and chlordiazepoxide were administered orally to all groups (n=10 […] per group) 60 minutes prior to behavioral testing. All data were analyzed using an analysis of variance (ANOVA) followed by Fisher's PLSD post hoc test. An effect was considered significance if p<0.05. Statistical outliers above or below 2 standard deviations from the mean in any of the temperature measures were removed from the final analysis.

rhesus monkeys = test: Rhesus monkey conflict test; type: in vivo; conditions: cumulative dosing
From the text: Conflict protocol: The conflict procedure is a well established operant conditioning approach to evaluate anxiolytic-like effects of test compounds. In this procedure, positively-reinforced behavior is suppressed by response-contingent administration of a noxious stimulus (i.e., mild electric shock). Compounds with anxiolytic effects in humans (e.g., benzodiazepines) characteristically increase rates of responding that are suppressed by shock and are referred to as anti-conflict or anxiolytic-like effects. […] In addition to anxiolytic-like effects, conflict procedures also provide an assessment of the ability of the animal to perform operant lever pressing. This is typically assessed by including lever pressing in the absence of the noxious stimulus. Most anxiolytic compounds will decrease rates of responding in the absence of shock at doses higher than those that induce anxiolytic-like effects. The effects contributing to anxiolytic-induced decreases in non-suppressed responding are not well understood, but likely consist of a combination of motor co-ordination deficits and sedative effects.
Adult rhesus monkeys were used in these studies (n=1-4). Weights of the monkeys ranged from 6.2 to 10.5 kg. The animals had been previously trained using the conflict procedure. Animals were maintained at 85-95% of their free-feeding weights by manipulation of food intake. Monkeys were individually housed with water available ad libitum, and maintained on a 12 hour lights-on/12 hour lights-off cycle (lights on at 0600 a.m.). Monkeys received Harlan Teklad diet (15% Primate Diet) as well as supplemental feeding (fruits, vegetables, and commercially available primate treats) daily. They were also given toys and video enrichment when not in an experimental session. Each animal was prepared prior to the study with a chronic indwelling venous catheter for drug delivery. A polyvinyl chloride catheter was implanted in a jugular, femoral or brachial vein under isoflurane anesthesia and aseptic conditions. The proximal end of the catheter terminated above the right atrium, and the distal end was passed subcutaneously to exit in the midscapular region. Experimental sessions began 5-7 days following surgery. Catheters had been implanted approximately 3 months to 1 year prior to the initiation of the study. During experimental sessions, monkeys were seated in primate chairs that were placed in ventilated sound-attenuating chambers. A single response lever was mounted on the wall of the chamber in front of the monkey. Each press of a lever produced an audible click and was recorded as a response via electromechanical equipment, a computer interface, and PC with specialized software. Food pellets could be delivered into a tray located next to the lever. Mild electric shock could be delivered to the bottom of the feet via brass electrodes that were fitted to shoes. Red and green lights mounted above the levers could be illuminated to serve as visual stimuli.
Monkeys were trained under a multiple schedule of food reinforcement adapted from Spealman (1979). A daily session consisted of 4 cycles, each preceded by a 10-min time out period in which all lights in the chamber were off and responding had no programmed consequences. Each cycle consisted of two components, component 1 and 2. Component 1 was signaled by red stimulus lights and consisted of an 18-response schedule (FR18) of food pellet delivery (i.e., the animal receives a food pellet following 18 responses). Component 2, signaled by green stimulus lights, followed immediately and consisted of the FR18 schedule of food delivery combined with a FR20 schedule of foot shock delivery (1.5-3.0 mA, adjusted for each monkey based on individual performance, 0.25 sec duration). Delivery of a food pellet (FR18 schedule) was followed by a 10 sec time out in which responses had no programmed consequences. […]

Row | SMILES | Change in Temperature (T2 − T1) Mean ± S.E.M. (129SVEV mice; 3 mg/kg PO) [°C] | Change in Temperature (T2 − T1) Mean ± S.E.M. (129SVEV mice; 10 mg/kg PO) [°C] | Change in Temperature (T2 − T1) Mean ± S.E.M. (129SVEV mice; 30 mg/kg PO) [°C] | Non-Suppressed Response Rates Mean ± S.E.M. (rhesus monkeys; 0.1 mg/kg IV) [Responses/Second] | Suppressed Response Rates Mean ± S.E.M. (rhesus monkeys; 0.1 mg/kg IV) [Responses/Second] | Non-Suppressed Response Rates Mean ± S.E.M. (rhesus monkeys; 0.3 mg/kg IV) [Responses/Second] | Suppressed Response Rates Mean ± S.E.M. (rhesus monkeys; 0.3 mg/kg IV) [Responses/Second] | Non-Suppressed Response Rates Mean ± S.E.M. (rhesus monkeys; 1 mg/kg IV) [Responses/Second] | Suppressed Response Rates Mean ± S.E.M. (rhesus monkeys; 1 mg/kg IV) [Responses/Second] | Non-Suppressed Response Rates Mean ± S.E.M. (rhesus monkeys; 3 mg/kg IV) [Responses/Second] | Suppressed Response Rates Mean ± S.E.M. (rhesus monkeys; 3 mg/kg IV) | Non-Suppressed Response Rates Mean ± S.E.M. (rhesus monkeys; 1.8 mg/kg IV) [Responses/Second] | Suppressed Response Rates Mean ± S.E.M. (rhesus monkeys; 1.8 mg/kg IV) | Non-Suppressed Response Rates Mean ± S.E.M. (rhesus monkeys; 5.6 mg/kg IV) [Responses/Second] | Suppressed Response Rates Mean ± S.E.M. (rhesus monkeys; 5.6 mg/kg IV)
1 | Clc1ccc(-c2nc3ccccn3c2Cc2ncn[nH]2)cc1 [Compound 211, 3-((1H-1,2,4-triazol-5-yl)methyl)-2-(4-chlorophenyl)imidazo[1,2-a]pyridine] | 0.37 ± 0.08 | 0.33 ± 0.09 | 0.37 ± 0.09 | – | – | – | – | – | – | – | – | – | – | – | –
2 | Clc1ccc(-c2nc3cccnn3c2Cn2cncn2)cc1 [Compound 32, 3-((1H-1,2,4-triazol-1-yl)methyl)-2-(4-chlorophenyl)imidazo[1,2-b]pyridazine] | 0.26 ± 0.04 | 0.28 ± 0.10 | 0.37 ± 0.06 | 2.50 ± 0.29 | 0.03 ± 0.01 | 2.58 ± 0.44 | 0.24 ± 0.17 | 1.82 ± 0.67 | 1.1 ± 0.67 | 1.77 ± 0.64 | 1.19 ± 0.36 Responses/Second | – | – | – | –
3 | Cn1ncnc1Cc1c(-c2ccc(F)cc2)nc2ccc(F)cn12 [Compound 200, 6-fluoro-2-(4-fluorophenyl)-3-((1-methyl-1H-1,2,4-triazol-5-yl)methyl)imidazo[1,2-a]pyridine] | −0.13 ± 0.11 | −0.50 ± 0.15 | −0.66 ± 0.13 | – | – | 3.2 | 0.02 | 2.9 | 0.02 | 3.1 | 1.2* Responses/Second | 2.4 | 1.4* Responses/Second | 3.3 | 1.9* Responses/Second
4 | Cc1ccn(Cc2c(-c3ccc(Cl)cc3)nc3ccccn23)c(=O)n1 [Compound 105, 1-((2-(4-chlorophenyl)imidazo[1,2-a]pyridin-3-yl)methyl)-4-methylpyrimidin-2(1H)-one] | – | – | – | 2.68 ± 0.37 | 0.02 ± 0.01 | 2.68 ± 0.39 | 0.47 ± 0.44 | 2.78 ± 0.36 | 0.79 ± 0.45 | 1.02 ± 0.57 | 0.46 ± 0.32 Responses/Second | – | – | – | –
5 | NC(=O)c1ncn(Cc2c(-c3ccc(Cl)cc3)nc3ccccn23)n1 [Compound 72, 1-((2-(4-chlorophenyl)imidazo[1,2-a]pyridin-3-yl)methyl)-1H-1,2,4-triazole-3-carboxamide] | 0.21 ± 0.11 | 0.32 ± 0.05 | 0.44 ± 0.10 | – | – | – | – | – | – | – | – | – | – | – | –
6 | CNC(=O)c1nccn1Cc1c(-c2ccc(Cl)cc2)nc2ccccn12 [Compound 77, 1-((2-(4-chlorophenyl)H-imidazo[1,2-a]pyridin-3-yl)methyl)-N-methyl-1H-imidazole-2-carboxamide] | 0.37 ± 0.15 | 0.55 ± 0.11 | 0.55 ± 0.12 | – | – | – | – | – | – | – | – | – | – | – | –

— US8497278B2, “Imidazo[1,2-a]pyridine compounds” (priority 2008, dated 2013)
